# Measurements as given in publication PMC7912279, “Preclinical Evaluation of ^99mTc-Labeled GRPR Antagonists maSSS/SES-PEG2-RM26 for Imaging of Prostate Cancer” (Pharmaceutics, 2021).
# Experiments:
# [1] = Octanol-water distribution coefficient (logD); type: physicochemical; conditions: determined as previously described [35]
# Procedure: To test the stability, the radiolabeled peptides were incubated with 300× molar excess of cysteine or with PBS at room temperature for 1 h. The octanol-water distribution coefficient (logD) was determined as previously described.
# [2] = Metabolite analysis of urine and caecum content by radio-HPLC; type: in vivo; conditions: NMRI mice, 40 pmol, 3 h pi, two mice
# Procedure: Metabolite Analysis: The NMRI mice were injected with 40 pmol of [^99mTc]Tc-maSSS-PEG2-RM26 (3 MBq) or [^99mTc]Tc-maSES-PEG2-RM26 (5.8 MBq). The mice were euthanized by CO2 inhalation 3 h pi, the content of the caecum and urine were collected and analyzed using HPLC as previously described. Centrifugation was performed using Centrifuge 5430 R (Eppendorf, Hamburg, Germany).
# PC-3 xenografts = assay: Biodistribution in tumor bearing mice; type: in vivo; conditions: BALB/c nu/nu mice bearing PC-3 xenografts; for uptake, Blood / uptake, Bone / uptake, GI (gastrointestinal tract with content) / uptake, Intestine / uptake, Kidneys / uptake, Liver / uptake, Lung / uptake, Muscle / uptake, Pancreas / uptake, Spleen / uptake, Stomach / uptake, Tumor: 40 pmol (30 kBq), gamma counter, 4-7 mice; for Tumor-to-non-tumor ratio, Blood / Tumor-to-non-tumor ratio, Bone / Tumor-to-non-tumor ratio, Intestine / Tumor-to-non-tumor ratio, Kidneys / Tumor-to-non-tumor ratio, Liver / Tumor-to-non-tumor ratio, Lung / Tumor-to-non-tumor ratio, Muscle / Tumor-to-non-tumor ratio, Pancreas / Tumor-to-non-tumor ratio, Spleen / Tumor-to-non-tumor ratio, Stomach: 40 pmol
# Procedure: Animals: All in vivo experiments were carried out on BALB/c nu/nu or NMRI mice provided by Scanbur A/S (Sollentuna, Sweden). All animal studies were approved by the Ethics Committee for Animal Research in Uppsala (Sweden), following the national legislation on the protection of laboratory animals (project identification code of approval 5/16, 26 February 2016). Prostate cancer xenografts expressing GRPR were established in BALB/c nu/nu mice by subcutaneous injection of PC-3 cell suspension in PBS (7 × 10^6 cells in 100 µL) four weeks before the experiment. Four to seven mice per data point were used in in vivo experiments, two mice per data point were used in metabolic analysis and SPECT/CT imaging experiments.
# Biodistribution in tumor bearing mice: The comparison of biodistribution between the two radiolabeled peptides was evaluated in BALB/c nu/nu mice bearing PC-3 xenografts. Each mouse was injected with 40 pmol (30 kBq, mass of injected peptide was adjusted with unlabeled peptide) of either [^99mTc]Tc-maSSS-PEG2-RM26 or [^99mTc]Tc-maSES-PEG2-RM26. The mice were euthanized 3 h pi. Sample collection and activity measurements were done as described above. The biodistribution of [^99mTc]Tc-maSSS-PEG2-RM26 was further studied at 6 h pi following the same protocol. Additionally for [^99mTc]Tc-maSSS-PEG2-RM26, one group of xenograft bearing mice was injected with 40 pmol (30 kBq, mass of injected peptide was adjusted with unlabeled peptide) of labeled peptide with 5 nmol of unlabeled peptide and euthanized 3 h pi.
# [3] = Biodistribution in NMRI mice for dosimetry estimation; type: in vivo; conditions: 40 pmol (30–500 kBq)
# Procedure: Dosimetry estimation: To estimate the organs’ absorbed doses after iv injection of [^99mTc]Tc-maSSS-PEG2-RM26, NMRI mice were injected with 40 pmol (30–500 kBq) of the radiolabeled peptide and biodistribution was evaluated 0.5, 1, 3, 6, and 24 h pi. Sample collection and activity measurements were done as described above. To evaluate dosimetry in humans, uptake values in mice were upscaled using the well-established “percent kg/g method” [37] (Equation (1)):(%IA/organ)human = [(%IA/g)animal × (kg TBweight)animal × (g organ/(kg TBweight)human](1) where %IA-% injected activity.
compound,measurement,setting,value
"CC(C)C[C@H](NC(=O)C[C@H](O)[C@H](CC(C)C)NC(=O)[C@H](Cc1c[nH]cn1)NC(=O)CNC(=O)[C@@H](NC(=O)[C@H](C)NC(=O)[C@H](Cc1c[nH]c2ccccc12)NC(=O)[C@H](CCC(N)=O)NC(=O)[C@@H](Cc1ccccc1)NC(=O)COCCOCCNC(=O)[C@H](CO)NC(=O)[C@H](CO)NC(=O)[C@H](CO)NC(=O)CS)C(C)C)C(N)=O [[^99mTc]Tc-maSSS-PEG2-RM26, metal not drawn]",logD,[1],-0.6
same,intact radiolabeled peptide in urine and gastrointestinal (caecum) content,[2],no intact radiolabeled peptide
same,"uptake, Blood",PC-3 xenografts; 3 h pi,0.09 ± 0.04 % IA/g
same,"uptake, Bone",PC-3 xenografts; 3 h pi,0.04 ± 0.02 % IA/g
same,"uptake, GI (gastrointestinal tract with content)",PC-3 xenografts; 3 h pi,56 ± 3 % IA
same,"uptake, Intestine",PC-3 xenografts; 3 h pi,3 ± 1 % IA/g
same,"uptake, Kidneys",PC-3 xenografts; 3 h pi,0.7 ± 0.4 % IA/g
same,"uptake, Liver",PC-3 xenografts; 3 h pi,3 ± 1 % IA/g
same,"uptake, Lung",PC-3 xenografts; 3 h pi,0.12 ± 0.03 % IA/g
same,"uptake, Muscle",PC-3 xenografts; 3 h pi,0.04 ± 0.02 % IA/g
same,"uptake, Pancreas",PC-3 xenografts; 3 h pi,6.1 ± 0.8 % IA/g
same,"uptake, Spleen",PC-3 xenografts; 3 h pi,0.12 ± 0.04 % IA/g
same,"uptake, Stomach",PC-3 xenografts; 3 h pi,1.4 ± 0.3 % IA/g
same,"uptake, Tumor",PC-3 xenografts; 3 h pi,7 ± 2 % IA/g
same,"uptake, Blood",PC-3 xenografts; 6 h pi,0.056 ± 0.009 % IA/g
same,"uptake, Bone",PC-3 xenografts; 6 h pi,0.02 ± 0.02 % IA/g
same,"uptake, GI (gastrointestinal tract with content)",PC-3 xenografts; 6 h pi,26 ± 6 % IA
same,"uptake, Intestine",PC-3 xenografts; 6 h pi,0.4 ± 0.2 % IA/g
same,"uptake, Kidneys",PC-3 xenografts; 6 h pi,0.59 ± 0.06 % IA/g
same,"uptake, Liver",PC-3 xenografts; 6 h pi,0.68 ± 0.08 % IA/g
same,"uptake, Lung",PC-3 xenografts; 6 h pi,0.20 ± 0.10 % IA/g
same,"uptake, Muscle",PC-3 xenografts; 6 h pi,0.012 ± 0.004 % IA/g
same,"uptake, Pancreas",PC-3 xenografts; 6 h pi,0.98 ± 0.08 % IA/g
same,"uptake, Spleen",PC-3 xenografts; 6 h pi,0.06 ± 0.01 % IA/g
same,"uptake, Stomach",PC-3 xenografts; 6 h pi,0.9 ± 0.2 % IA/g
same,"uptake, Tumor",PC-3 xenografts; 6 h pi,3 ± 1 % IA/g
same,"Tumor-to-non-tumor ratio, Blood",PC-3 xenografts; 3 h pi,97 ± 56
same,"Tumor-to-non-tumor ratio, Bone",PC-3 xenografts; 3 h pi,177 ± 79
same,"Tumor-to-non-tumor ratio, Intestine",PC-3 xenografts; 3 h pi,3 ± 1
same,"Tumor-to-non-tumor ratio, Kidneys",PC-3 xenografts; 3 h pi,14 ± 9
same,"Tumor-to-non-tumor ratio, Liver",PC-3 xenografts; 3 h pi,3 ± 2
same,"Tumor-to-non-tumor ratio, Lung",PC-3 xenografts; 3 h pi,65 ± 20
same,"Tumor-to-non-tumor ratio, Muscle",PC-3 xenografts; 3 h pi,188 ± 32
same,"Tumor-to-non-tumor ratio, Pancreas",PC-3 xenografts; 3 h pi,1.2 ± 0.4
same,"Tumor-to-non-tumor ratio, Spleen",PC-3 xenografts; 3 h pi,62 ± 14
same,"Tumor-to-non-tumor ratio, Stomach",PC-3 xenografts; 3 h pi,5 ± 2
same,"Tumor-to-non-tumor ratio, Blood",PC-3 xenografts; 6 h pi,57 ± 22
same,"Tumor-to-non-tumor ratio, Bone",PC-3 xenografts; 6 h pi,287 ± 232
same,"Tumor-to-non-tumor ratio, Intestine",PC-3 xenografts; 6 h pi,9 ± 4
same,"Tumor-to-non-tumor ratio, Kidneys",PC-3 xenografts; 6 h pi,5 ± 2
same,"Tumor-to-non-tumor ratio, Liver",PC-3 xenografts; 6 h pi,5 ± 2
same,"Tumor-to-non-tumor ratio, Lung",PC-3 xenografts; 6 h pi,18 ± 8
same,"Tumor-to-non-tumor ratio, Muscle",PC-3 xenografts; 6 h pi,270 ± 67
same,"Tumor-to-non-tumor ratio, Pancreas",PC-3 xenografts; 6 h pi,3 ± 1
same,"Tumor-to-non-tumor ratio, Spleen",PC-3 xenografts; 6 h pi,50 ± 16
same,"Tumor-to-non-tumor ratio, Stomach",PC-3 xenografts; 6 h pi,3 ± 1
same,"uptake, Blood",[3]; 0.5 h pi,0.7 ± 0.1 % IA/g
same,"uptake, Body",[3]; 0.5 h pi,4.5 ± 0.9 %IA/sample
same,"uptake, Bone",[3]; 0.5 h pi,0.26 ± 0.09 % IA/g
same,"uptake, Brain",[3]; 0.5 h pi,0.031 ± 0.008 % IA/g
same,"uptake, Caecum",[3]; 0.5 h pi,0.34 ± 0.09 %IA/sample
same,"uptake, Heart",[3]; 0.5 h pi,0.27 ± 0.10 % IA/g
same,"uptake, Kidneys",[3]; 0.5 h pi,2.5 ± 0.6 % IA/g
same,"uptake, Liver",[3]; 0.5 h pi,4 ± 1 % IA/g
same,"uptake, Lung",[3]; 0.5 h pi,0.7 ± 0.3 % IA/g
same,"uptake, Muscle",[3]; 0.5 h pi,0.13 ± 0.03 % IA/g
same,"uptake, Pancreas",[3]; 0.5 h pi,7 ± 2 % IA/g
same,"uptake, Small intestine",[3]; 0.5 h pi,10 ± 2 %IA/sample
same,"uptake, Spleen",[3]; 0.5 h pi,1.1 ± 0.4 % IA/g
same,"uptake, Stomach",[3]; 0.5 h pi,2.2 ± 0.2 %IA/sample
same,"uptake, Upper large intestine",[3]; 0.5 h pi,0.4 ± 0.3 %IA/sample
same,"uptake, Body",[3]; 1 h pi,6 ± 1 %IA/sample
same,"uptake, Bone",[3]; 1 h pi,0.2 ± 0.1 % IA/g
same,"uptake, Brain",[3]; 1 h pi,0.04 ± 0.02 % IA/g
same,"uptake, Caecum",[3]; 1 h pi,0.9 ± 0.2 %IA/sample
same,"uptake, Heart",[3]; 1 h pi,0.23 ± 0.03 % IA/g
same,"uptake, Kidneys",[3]; 1 h pi,4 ± 1 % IA/g
same,"uptake, Large intestine",[3]; 1 h pi,0.6 ± 0.1 %IA/sample
same,"uptake, Liver",[3]; 1 h pi,6 ± 1 % IA/g
same,"uptake, Lung",[3]; 1 h pi,0.9 ± 0.4 % IA/g
same,"uptake, Pancreas",[3]; 1 h pi,13 ± 6 % IA/g
same,"uptake, Small intestine",[3]; 1 h pi,44 ± 10 %IA/sample
same,"uptake, Spleen",[3]; 1 h pi,2.4 ± 1.6 % IA/g
same,"uptake, Stomach",[3]; 1 h pi,6 ± 2 %IA/sample
same,"uptake, Blood",[3]; 3 h pi,0.38 ± 0.06 % IA/g
same,"uptake, Body",[3]; 3 h pi,4 ± 2 %IA/sample
same,"uptake, Bone",[3]; 3 h pi,0.27 ± 0.04 % IA/g
same,"uptake, Brain",[3]; 3 h pi,0.03 ± 0.01 % IA/g
same,"uptake, Caecum",[3]; 3 h pi,16 ± 4 %IA/sample
same,"uptake, Heart",[3]; 3 h pi,0.12 ± 0.01 % IA/g
same,"uptake, Kidneys",[3]; 3 h pi,1.5 ± 0.3 % IA/g
same,"uptake, Large intestine",[3]; 3 h pi,3.3 ± 3.5 %IA/sample
same,"uptake, Liver",[3]; 3 h pi,2.5 ± 0.4 % IA/g
same,"uptake, Lung",[3]; 3 h pi,0.44 ± 0.07 % IA/g
same,"uptake, Muscle",[3]; 3 h pi,0.061 ± 0.006 % IA/g
same,"uptake, Pancreas",[3]; 3 h pi,3.2 ± 0.7 % IA/g
same,"uptake, Small intestine",[3]; 3 h pi,9 ± 3 %IA/sample
same,"uptake, Spleen",[3]; 3 h pi,2 ± 1 % IA/g
same,"uptake, Stomach",[3]; 3 h pi,5 ± 1 %IA/sample
same,"uptake, Upper large intestine",[3]; 3 h pi,5.2 ± 5.1 %IA/sample
same,"uptake, Blood",[3]; 6 h pi,0.30 ± 0.07 % IA/g
same,"uptake, Body",[3]; 6 h pi,2.8 ± 0.2 %IA/sample
same,"uptake, Bone",[3]; 6 h pi,0.18 ± 0.03 % IA/g
same,"uptake, Brain",[3]; 6 h pi,0.03 ± 0.01 % IA/g
same,"uptake, Caecum",[3]; 6 h pi,18 ± 3 %IA/sample
same,"uptake, Heart",[3]; 6 h pi,0.17 ± 0.08 % IA/g
same,"uptake, Kidneys",[3]; 6 h pi,1.3 ± 0.3 % IA/g
same,"uptake, Large intestine",[3]; 6 h pi,30 ± 13 %IA/sample
same,"uptake, Liver",[3]; 6 h pi,1.1 ± 0.3 % IA/g
same,"uptake, Lung",[3]; 6 h pi,0.3 ± 0.1 % IA/g
same,"uptake, Muscle",[3]; 6 h pi,0.05 ± 0.03 % IA/g
same,"uptake, Small intestine",[3]; 6 h pi,2.5 ±0.8 %IA/sample
same,"uptake, Spleen",[3]; 6 h pi,0.6 ± 0.5 % IA/g
same,"uptake, Stomach",[3]; 6 h pi,3.2 ±0.4 %IA/sample
same,"uptake, Upper large intestine",[3]; 6 h pi,14 ± 1 %IA/sample
same,"uptake, Blood",[3]; 24 h pi,0.030 ± 0.006 % IA/g
same,"uptake, Body",[3]; 24 h pi,0.27 ± 0.05 %IA/sample
same,"uptake, Bone",[3]; 24 h pi,0.04 ± 0.02 % IA/g
same,"uptake, Brain",[3]; 24 h pi,0.006 ± 0.004 % IA/g
same,"uptake, Caecum",[3]; 24 h pi,0.3 ± 0.2 %IA/sample
same,"uptake, Heart",[3]; 24 h pi,0.021 ± 0.003 % IA/g
same,"uptake, Kidneys",[3]; 24 h pi,0.46 ± 0.08 % IA/g
same,"uptake, Large intestine",[3]; 24 h pi,0.05 ± 0.03 %IA/sample
same,"uptake, Liver",[3]; 24 h pi,0.39 ± 0.05 % IA/g
same,"uptake, Lung",[3]; 24 h pi,0.09 ± 0.04 % IA/g
same,"uptake, Muscle",[3]; 24 h pi,0.006 ± 0.003 % IA/g
same,"uptake, Pancreas",[3]; 24 h pi,0.10 ± 0.02 % IA/g
same,"uptake, Small intestine",[3]; 24 h pi,0.10 ± 0.05 %IA/sample
same,"uptake, Spleen",[3]; 24 h pi,0.37 ± 0.09 % IA/g
same,"uptake, Stomach",[3]; 24 h pi,0.2 ± 0.1 %IA/sample
same,"uptake, Upper large intestine",[3]; 24 h pi,0.05 ± 0.01 %IA/sample
